Laboratory results from ChEMBL document CHEMBL3734705, “Synthesis and in vitro cytotoxicity of novel C-12 substituted-14-deoxy-andrographolide derivatives as potent anti-cancer agents” (2015).

What was measured:
[1] = Cytotoxicity against human SF268 cells assessed as growth level at 10 uM after 48 hrs by SRB assay; type: functional, SF-268
[2] = Cytotoxicity against human SKOV3 cells assessed as growth level at 10 uM after 48 hrs by SRB assay; type: functional, SK-OV-3
[3] = Cytotoxicity against human UACC257 cells assessed as growth level at 10 uM after 48 hrs by SRB assay; type: functional, UACC-257
[4] = Cytotoxicity against human SW620 cells assessed as growth level at 10 uM after 48 hrs by SRB assay; type: functional, SW-620
[5] = Cytotoxicity against human LOXIMVI cells assessed as growth level at 10 uM after 48 hrs by SRB assay; type: functional, LOX IMVI
[6] = Cytotoxicity against human IGROV1 cells assessed as growth level at 10 uM after 48 hrs by SRB assay; type: functional, IGROV-1
[7] = Cytotoxicity against human PC3 cells assessed as growth level at 10 uM after 48 hrs by SRB assay; type: functional, PC-3
[8] = Cytotoxicity against human COLO205 cells assessed as growth level at 10 uM after 48 hrs by SRB assay; type: functional, COLO 205
[9] = Cytotoxicity against human SNB75 cells assessed as growth level at 10 uM after 48 hrs by SRB assay; type: functional, SNB-75
MDA-MB-468 = assay: Cytotoxicity against human MDA-MB-468 cells assessed as growth level at 10 uM after 48 hrs by SRB assay; type: functional
MDA-MB-435 = assay: Cytotoxicity against human MDA-MB-435 cells assessed as growth level at 10 uM after 48 hrs by SRB assay; type: functional
K562 = assay: Cytotoxicity against human K562 cells assessed as growth level at 10 uM after 48 hrs by SRB assay; type: functional
[10] = Cytotoxicity against human HOP92 cells assessed as growth level at 10 uM after 48 hrs by SRB assay; type: functional, HOP-92
NCI-H460 = assay: Cytotoxicity against human NCI-H460 cells assessed as growth level at 10 uM after 48 hrs by SRB assay; type: functional
[11] = Cytotoxicity against human Caki1 cells assessed as growth level at 10 uM after 48 hrs by SRB assay; type: functional, CAKI-1
[12] = Cytotoxicity against human SF295 cells assessed as growth level at 10 uM after 48 hrs by SRB assay; type: functional, SF-295
[13] = Cytotoxicity against human UACC62 cells assessed as growth level at 10 uM after 48 hrs by SRB assay; type: functional, UACC-62
NCI-H322M = assay: Cytotoxicity against human NCI-H322M cells assessed as growth level at 10 uM after 48 hrs by SRB assay; type: functional
U-251 = assay: Cytotoxicity against human U251 cells assessed as growth level at 10 uM after 48 hrs by SRB assay; type: functional
SN12C = assay: Cytotoxicity against human SN12C cells assessed as growth level at 10 uM after 48 hrs by SRB assay; type: functional
SK-MEL-5 = assay: Cytotoxicity against human SK-MEL-5 cells assessed as growth level at 10 uM after 48 hrs by SRB assay; type: functional
MCF7 = assay: Cytotoxicity against human MCF7 cells assessed as growth level at 10 uM after 48 hrs by SRB assay; type: functional
[14] = Cytotoxicity against human SNB19 cells assessed as growth level at 10 uM after 48 hrs by SRB assay; type: functional, SNB-19
CCRF-CEM = assay: Cytotoxicity against human CCRF-CEM cells assessed as growth level at 10 uM after 48 hrs by SRB assay; type: functional
HT-29 = assay: Cytotoxicity against human HT-29 cells assessed as growth level at 10 uM after 48 hrs by SRB assay; type: functional
A549 = assay: Cytotoxicity against human A549 cells assessed as growth level at 10 uM after 48 hrs by SRB assay; type: functional
KM12 = assay: Cytotoxicity against human KM12 cells assessed as growth level at 10 uM after 48 hrs by SRB assay; type: functional
NCI-H226 = assay: Cytotoxicity against human NCI-H226 cells assessed as growth level at 10 uM after 48 hrs by SRB assay; type: functional
[15] = Cytotoxicity against human HCC2998 cells assessed as growth level at 10 uM after 48 hrs by SRB assay; type: functional, HCC 2998
[16] = Cytotoxicity against human OVCAR4 cells assessed as growth level at 10 uM after 48 hrs by SRB assay; type: functional, OVCAR-4
NCI-H23 = assay: Cytotoxicity against human NCI-H23 cells assessed as growth level at 10 uM after 48 hrs by SRB assay; type: functional
T47D = assay: Cytotoxicity against human T47D cells assessed as growth level at 10 uM after 48 hrs by SRB assay; type: functional
[17] = Cytotoxicity against human HCT116 cells assessed as growth level at 10 uM after 48 hrs by SRB assay; type: functional, HCT-116
SR = assay: Cytotoxicity against human SR cells assessed as growth level at 10 uM after 48 hrs by SRB assay; type: functional
A498 = assay: Cytotoxicity against human A498 cells assessed as growth level at 10 uM after 48 hrs by SRB assay; type: functional
[18] = Cytotoxicity against human TK10 cells assessed as growth level at 10 uM after 48 hrs by SRB assay; type: functional, TK-10
[19] = Cytotoxicity against human OVCAR5 cells assessed as growth level at 10 uM after 48 hrs by SRB assay; type: functional, OVCAR-5
MDA-MB-231 = assay: Cytotoxicity against human MDA-MB-231 cells assessed as growth level at 10 uM after 48 hrs by SRB assay; type: functional
SK-MEL-28 = assay: Cytotoxicity against human SK-MEL-28 cells assessed as growth level at 10 uM after 48 hrs by SRB assay; type: functional
[20] = Cytotoxicity against human RPMI8226 cells assessed as growth level at 10 uM after 48 hrs by SRB assay; type: functional, RPMI-8226
EKVX = assay: Cytotoxicity against human EKVX cells assessed as growth level at 10 uM after 48 hrs by SRB assay; type: functional
[21] = Cytotoxicity against human BT549 cells assessed as growth level at 10 uM after 48 hrs by SRB assay; type: functional, BT-549
Malme-3M = assay: Cytotoxicity against human MALME-3M cells assessed as growth level at 10 uM after 48 hrs by SRB assay; type: functional
[22] = Cytotoxicity against human Hs578T cells assessed as growth level at 10 uM after 48 hrs by SRB assay; type: functional, Hs-578T
[23] = Cytotoxicity against human RXF393 cells assessed as growth level at 10 uM after 48 hrs by SRB assay; type: functional, RXF 393
ACHN = assay: Cytotoxicity against human ACHN cells assessed as growth level at 10 uM after 48 hrs by SRB assay; type: functional
[24] = Cytotoxicity against human NCI-ADR-RES cells assessed as growth level at 10 uM after 48 hrs by SRB assay; type: functional
[25] = Cytotoxicity against human MOLT4 cells assessed as growth level at 10 uM after 48 hrs by SRB assay; type: functional, MOLT-4
[26] = Cytotoxicity against human SF539 cells assessed as growth level at 10 uM after 48 hrs by SRB assay; type: functional, SF-539
[27] = Cytotoxicity against human OVCAR3 cells assessed as growth level at 10 uM after 48 hrs by SRB assay; type: functional, OVCAR-3
[28] = Cytotoxicity against human UO31 cells assessed as growth level at 10 uM after 48 hrs by SRB assay; type: functional, UO-31
[29] = Cytotoxicity against human HCT15 cells assessed as growth level at 10 uM after 48 hrs by SRB assay; type: functional, HCT-15
[30] = Cytotoxicity against human HL-60(TB) cells assessed as growth level at 10 uM after 48 hrs by SRB assay; type: functional
[31] = Cytotoxicity against human HOP62 cells assessed as growth level at 10 uM after 48 hrs by SRB assay; type: functional, HOP-62
[32] = Cytotoxicity against human DU145 cells assessed as growth level at 10 uM after 48 hrs by SRB assay; type: functional, DU-145
[33] = Cytotoxicity against human OVCAR8 cells assessed as growth level at 10 uM after 48 hrs by SRB assay; type: functional, OVCAR-8
786-0 = assay: Cytotoxicity against human 786-0 cells assessed as growth level at 10 uM after 48 hrs by SRB assay; type: functional
M14 = assay: Cytotoxicity against human M14 cells assessed as growth level at 10 uM after 48 hrs by SRB assay; type: functional
NCI-H522 = assay: Cytotoxicity against human NCI-H522 cells assessed as growth level at 10 uM after 48 hrs by SRB assay; type: functional
SK-MEL-2 = assay: Cytotoxicity against human SK-MEL-2 cells assessed as growth level at 10 uM after 48 hrs by SRB assay; type: functional

In the case of `C=C1CC[C@@H]2[C@](C)(COC(C)=O)[C@H](OC(C)=O)CC[C@@]2(C)[C@@H]1CC(NCCCCCCCCCCCCCCCCCC)C1=CCOC1=O` (mixture of isomers), the Activity [1] was 100.29%, the Activity [2] was 102.04% and the Activity [3] was 108.48%. The Activity [4] was 101.13%, the Activity [5] was 98.11% and the Activity [6] was 110.04%. It also gave an Activity [7] of 89.57%, an Activity [8] of 103.75% and an Activity [9] of 87.94%. It also gave an Activity (MDA-MB-468) of 99.82%, an Activity (MDA-MB-435) of 107% and an Activity (K562) of 104.45%. The Activity [10] was 80.59%, the Activity (NCI-H460) was 105.91% and the Activity [11] was 97.66%. The Activity [12] was 112.48%, the Activity [13] was 97.28% and the Activity (NCI-H322M) was 102.69%. It also gave an Activity (U-251) of 101.78%, an Activity (SN12C) of 103.39% and an Activity (SK-MEL-5) of 101.04%. It also gave an Activity (MCF7) of 101.73%, an Activity [14] of 102.65% and an Activity (CCRF-CEM) of 104.64%. For the same compound, the Activity (HT-29) was 103.31%, the Activity (A549) was 101.56% and the Activity (KM12) was 107.75%. For the same compound, the Activity (NCI-H226) was 92.06%, the Activity [15] was 114% and the Activity [16] was 114.35%. The Activity (NCI-H23) was 100.06%, the Activity (T47D) was 97.23% and the Activity [17] was 105.04%. For the same compound, the Activity (SR) was 101.94%, the Activity (A498) was 100.06% and the Activity [18] was 102.72%. The Activity [19] was 108.25%, the Activity (MDA-MB-231) was 96.62% and the Activity (SK-MEL-28) was 111.23%. It also gave an Activity [20] of 101.07%, an Activity (EKVX) of 111.12% and an Activity [21] of 106.47%. It also gave an Activity (Malme-3M) of 111.94%, an Activity [22] of 103.17% and an Activity [23] of 109.25%. The Activity (ACHN) was 113.27%, the Activity [24] was 101.33% and the Activity [25] was 95.91%. The Activity [26] was 101.6%, the Activity [27] was 103.35% and the Activity [28] was 88.83%. It also gave an Activity [29] of 117.13%, an Activity [30] of 100.5% and an Activity [31] of 96.46%. It also gave an Activity [32] of 108.9%, an Activity [33] of 104.57% and an Activity (786-0) of 106.62%. For the same compound, the Activity (M14) was 102.16% and the Activity (NCI-H522) was 98.04%.

In the case of `C=C1CC[C@@H]2[C@](C)(COC(C)=O)[C@H](OC(C)=O)CC[C@@]2(C)[C@@H]1CC(NC1CC1)C1=CCOC1=O` (mixture of isomers), the Activity [1] was 93.53%, the Activity [2] was 102.92% and the Activity [3] was 100.57%. It also gave an Activity [4] of 115.37%, an Activity [5] of 94% and an Activity [6] of 96%. For the same compound, the Activity (SK-MEL-2) was 104.35%, the Activity [7] was 77.06% and the Activity [8] was 106.86%. For the same compound, the Activity [9] was 90.39%, the Activity (MDA-MB-468) was 91.77% and the Activity (MDA-MB-435) was 96.33%. It also gave an Activity (K562) of 74.16%, an Activity [10] of 83.7% and an Activity (NCI-H460) of 105.35%. It also gave an Activity [11] of 98.25%, an Activity [12] of 97.25% and an Activity [13] of 84.5%. The Activity (NCI-H322M) was 98.57%, the Activity (U-251) was 96.2% and the Activity (SN12C) was 101.14%. The Activity (SK-MEL-5) was 96.5%, the Activity (MCF7) was 85.36% and the Activity [14] was 100.97%. For the same compound, the Activity (CCRF-CEM) was 95.35%, the Activity (HT-29) was 100.7% and the Activity (A549) was 82.92%. It also gave an Activity (KM12) of 90.49%, an Activity (NCI-H226) of 106.3% and an Activity [15] of 102.97%. It also gave an Activity [16] of 101.59%, an Activity (NCI-H23) of 98.94% and an Activity (T47D) of 79.56%. It also gave an Activity [17] of 88.19%, an Activity (SR) of 73.84% and an Activity (A498) of 102.06%. For the same compound, the Activity [18] was 98.64%, the Activity [19] was 110.21% and the Activity (MDA-MB-231) was 100.99%. It also gave an Activity (SK-MEL-28) of 107.72%, an Activity [20] of 70.32% and an Activity (EKVX) of 86.69%. The Activity [21] was 86.41%, the Activity (Malme-3M) was 89.64% and the Activity [22] was 110.62%. For the same compound, the Activity [23] was 116.59%, the Activity (ACHN) was 98.37% and the Activity [24] was 98.35%. For the same compound, the Activity [25] was 87.21%, the Activity [26] was 95.4% and the Activity [27] was 96.85%. It also gave an Activity [28] of 82.44%, an Activity [29] of 93.63% and an Activity [30] of 102.95%. The Activity [31] was 102.23%, the Activity [32] was 98.78% and the Activity [33] was 105.48%. The Activity (786-0) was 107.45%, the Activity (M14) was 93.67% and the Activity (NCI-H522) was 78.4%.
